Experiments:
Settings in all cases: incubation time: 72 h
BT-474 = test: normalised viability (% of control), CellTiter-Blue; higher = more viable cells (about 100 = DMSO control)
Summary of the method: (§1)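 The reported figure is normalised viability at a single listed concentration of the series. Breast cancer cell lines (20 µl suspension) went onto 384-well plates holding compound in 5 µl medium for 72 h. CellTiter-Blue (2.5 µl, 2 h, 37 °C) was read by fluorescence at 560/590 nm, and each plate was scaled to vehicle at 100 and a positive kill control at 0.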

BT-549 = test: as above
Summary of the method: as §1

CAL-120 = test: as above
Summary of the method: as §1

CAL-148 [1] = test: as above
Summary of the method: as §1

CAL-51 [2] = test: as above
Summary of the method: as §1

CAL-85-1 [3] = test: as above
Summary of the method: as §1

DU-4475 [4] = test: as above
Summary of the method: as §1

HCC1143 = test: as above
Summary of the method: as §1

HCC1599 = test: as above
Summary of the method: as §1

HCC1937 = test: as above
Summary of the method: as §1

HDQ-P1 [5] = test: as above
Summary of the method: as §1

Hs578T = test: as above
Summary of the method: as §1

MDA-MB-231 = test: as above
Summary of the method: as §1

MDA-MB-436 = test: as above
Summary of the method: as §1

MDA-MB-453 [6] = test: as above
Summary of the method: as §1

MDA-MB-468 = test: as above
Summary of the method: as §1

MFM-223 [7] = test: as above
Summary of the method: as §1

SK-BR-3 = test: as above
Summary of the method: as §1

CAL-148 [8] = test: normalised viability (% of control), CellTiter-Blue; higher = more viable cells (about 100 = DMSO control); remark: listed apart in the source
Protocol: (§2)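 DSRT, CellTiter-Blue viability, 72 h incubation. Signal is normalised to DMSO and benzethonium chloride controls. Value is the normalised response at dose 6.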

CAL-51 [9] = test: as above; remark: listed apart in the source
Protocol: as §2

CAL-85-1 [10] = test: as above; remark: listed apart in the source
Protocol: as §2

DU-4475 [11] = test: as above; remark: listed apart in the source
Protocol: as §2

HDQ-P1 [12] = test: as above; remark: listed apart in the source
Protocol: as §2

MDA-MB-453 [13] = test: as above; remark: listed apart in the source
Protocol: as §2

CAL-148 [14] = test: as above; remark: listed apart in the source
Protocol: (§3)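 DSRT, CellTiter-Blue viability, 72 h incubation. Signal is normalised to DMSO and benzethonium chloride controls. Value is the normalised response at dose 9.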

CAL-51 [15] = test: as above; remark: listed apart in the source
Protocol: as §3

CAL-85-1 [16] = test: as above; remark: listed apart in the source
Protocol: as §3

DU-4475 [17] = test: as above; remark: listed apart in the source
Protocol: as §3

HDQ-P1 [18] = test: as above; remark: listed apart in the source
Protocol: as §3

CAL-148 [19] = test: normalised viability (% of control), CellTiter-Blue; higher = more viable cells (100 = DMSO, 0 = benzethonium chloride kill control)
Summary of the method: as §1

CAL-51 [20] = test: as above
Summary of the method: as §1

MFM-223 [21] = test: as above
Summary of the method: as §1

Structure (SMILES): Cn1cncc1[C@@](N)(c1ccc(Cl)cc1)c1ccc2c(c1)c(-c1cccc(Cl)c1)cc(=O)n2C [Tipifarnib]
- normalised viability (BT-474; 10000 nM): 45%
- normalised viability (BT-549; 10000 nM): 30.1%
- normalised viability (CAL-120; 10000 nM): 32.7%
- normalised viability (CAL-148 [1]; 100 nM): 45.6%
- normalised viability (CAL-51 [2]; 100 nM): 63.4%
- normalised viability (CAL-85-1 [3]; 100 nM): 76.8%
- normalised viability (DU-4475 [4]; 100 nM): 54.9%
- normalised viability (HCC1143; 10000 nM): 59.7%
- normalised viability (HCC1599; 10000 nM): 51.7%
- normalised viability (HCC1937; 10000 nM): 32.3%
- normalised viability (HDQ-P1 [5]; 100 nM): 70.7%
- normalised viability (Hs578T; 10000 nM): 39.3%
- normalised viability (MDA-MB-231; 10000 nM): 48.8%
- normalised viability (MDA-MB-436; 10000 nM): 54.9%
- normalised viability (MDA-MB-453 [6]; 100 nM): 73.6%
- normalised viability (MDA-MB-468; 10000 nM): 26.4%
- normalised viability (MFM-223 [7]; 10000 nM): 29.7%
- normalised viability (SK-BR-3; 10000 nM): 23.8%
- normalised viability (CAL-148 [8]; 300 nM): 44.9%
- normalised viability (CAL-51 [9]; 300 nM): 60.2%
- normalised viability (CAL-85-1 [10]; 300 nM): 64%
- normalised viability (DU-4475 [11]; 300 nM): 43.9%
- normalised viability (HDQ-P1 [12]; 300 nM): 52.5%
- normalised viability (MDA-MB-453 [13]; 300 nM): 77.2%
- normalised viability (CAL-148 [14]; 10000 nM): 26.7%
- normalised viability (CAL-51 [15]; 10000 nM): 20.4%
- normalised viability (CAL-85-1 [16]; 10000 nM): 47.2%
- normalised viability (DU-4475 [17]; 10000 nM): 15.7%
- normalised viability (HDQ-P1 [18]; 10000 nM): 49.6%
- normalised viability (CAL-148 [19]; 1 nM): 102%
- normalised viability (CAL-51 [20]; 1 nM): 98.4%
- normalised viability (MFM-223 [21]; 1 nM): 87.6%

Structure (SMILES): O=C1NC(=O)[C@@H](c2cn3c4c(cccc24)CCC3)[C@@H]1c1c[nH]c2ccccc12 [Tivantinib]
- normalised viability (BT-474; 1000 nM): 45.4%
- normalised viability (BT-549; 1000 nM): 26.8%
- normalised viability (CAL-120; 1000 nM): 29.7%
- normalised viability (CAL-148 [1]; 10 nM): 97.9%
- normalised viability (CAL-51 [2]; 10 nM): 108%
- normalised viability (CAL-85-1 [3]; 10 nM): 104%
- normalised viability (DU-4475 [4]; 10 nM): 82.9%
- normalised viability (HCC1143; 1000 nM): 55.2%
- normalised viability (HCC1599; 1000 nM): 79%
- normalised viability (HCC1937; 1000 nM): 30.4%
- normalised viability (HDQ-P1 [5]; 10 nM): 100%
- normalised viability (Hs578T; 1000 nM): 19.9%
- normalised viability (MDA-MB-231; 1000 nM): 29.8%
- normalised viability (MDA-MB-436; 1000 nM): 52.3%
- normalised viability (MDA-MB-453 [6]; 10 nM): 107%
- normalised viability (MDA-MB-468; 1000 nM): 42.4%
- normalised viability (MFM-223 [7]; 1000 nM): 57.8%
- normalised viability (SK-BR-3; 1000 nM): 21.5%
- normalised viability (CAL-148 [8]; 30 nM): 104%
- normalised viability (CAL-51 [9]; 30 nM): 104%
- normalised viability (CAL-85-1 [10]; 30 nM): 95.8%
- normalised viability (DU-4475 [11]; 30 nM): 87.3%
- normalised viability (HDQ-P1 [12]; 30 nM): 55.3%
- normalised viability (MDA-MB-453 [13]; 30 nM): 107%
- normalised viability (CAL-148 [14]; 1000 nM): 30.5%
- normalised viability (CAL-51 [15]; 1000 nM): 21.1%
- normalised viability (CAL-85-1 [16]; 1000 nM): 33.9%
- normalised viability (DU-4475 [17]; 1000 nM): 36.9%
- normalised viability (HDQ-P1 [18]; 1000 nM): 53%
- normalised viability (CAL-148 [19]; 0.1 nM): 110%
- normalised viability (CAL-51 [20]; 0.1 nM): 106%
- normalised viability (MFM-223 [21]; 0.1 nM): 85.6%

From the supplement of paper PMC4862054
